The text below walks through data of patent publication US20210395745A1, “RNAI AGENTS FOR HEPATITIS B VIRUS INFECTION” (Arrowhead Pharmaceuticals, Inc., priority 2019, published 2021).

Series [1] deals with Hepatitis B Virus (HBV). Description: Serum HBsAg levels in X Region Knockout model mice. Format: in vivo. The following applies: Example 14, single SC, 2 mg/kg AD04872 alone or with 0.7 to 2 mg/kg AD05070, days 8-29. How it is done:
Serum was collected and diluted 10 to 8000-fold in PBS containing 5% nonfat dry milk. Secondary HBsAg standards diluted in the nonfat milk solution were prepared from serum of ICR mice (Harlan Sprague Dawley) that had been transfected with 10 μg HBsAg-expressing plasmid pRc/CMV-HBs (Aldevron, Fargo, N. Dak.). HBsAg levels were determined with a GS HBsAg EIA 3.0 kit (Bio-Rad Laboratories, Inc., Redmond, Wash.) as described by the manufacturer. Recombinant HBsAg protein, ayw subtype, also diluted in nonfat milk in PBS, was used as a primary standard (Aldevron).
HBsAg expression for each animal was normalized to the control group of mice injected with PBS in order to account for the non-treatment related decline in expression of MC-HBV1.3. First, the HBsAg level for each animal at a time point was divided by the pre-treatment level of expression in that animal in order to determine the ratio of expression “normalized to pre-treatment”. Expression at a specific time point was then normalized to the control group by dividing the “normalized to pre-treatment” ratio for an individual animal by the average “normalized to pre-treatment” ratio of all mice in the normal PBS control group.

Series [2] deals with Hepatitis B Virus (HBV). Description: Serum HBsAg levels (ELISA) in pHBV model mice. The following applies: for Average HBsAg levels normalized to pre-treatment and PBS control: 4.0 mg/kg sc day 1, Day 8. Type of series: in vivo, NOD-SCID mice. The text has this: Six to eight-week-old female NOD.CB17-Prkdscid/NcrCrl (NOD-SCID) mice were transiently transfected in vivo with MC-HBV1.3 by hydrodynamic tail vein injection (Yang P L et al. “Hydrodynamic injection of viral DNA: a mouse model of acute hepatitis B virus infection,” PNAS USA 2002 Vol. 99: p. 13825-13830), administered 30 to 45 days prior to administration of an HBV RNAi agent or control. MC-HBV1.3 is a plasmid-derived minicircle that contains the same terminally redundant human hepatitis B virus sequence HBV1.3 as in plasmid pHBV1.3 and in the HBV1.3.32 transgenic mice (GenBank accession #V01460) (Guidotti L G et al., “High-level hepatitis B virus replication in transgenic mice,” J Virol 1995 Vol. 69, p 6158-6169.). 5 or 10 μg MC-HBV1.3 in Ringer's Solution in a total volume of 10% of the animal's body weight was injected into mice via tail vein to create pHBV model of chronic HBV infection. The solution was injected through a 27-gauge needle in 5-7 seconds as previously described (Zhang G et al., “High levels of foreign gene expression in hepatocytes after tail vein injection of naked plasmid DNA.” Human Gene Therapy 1999 Vol. 10, p 1735-1737.). At pre-dose (either day 1 pre-dose, day −1, or day −2), Hepatitis B surface antigen (HBsAg) HBsAg expression levels in serum were measured by ELISA and the mice were grouped according to average HBsAg expression levels.
HBV expression levels were normalized to pre-administration expression levels and to control mice injected with phosphate buffered saline (“PBS”).
Mice were anesthetized with 2-3% isoflurane and blood samples were collected from the submandibular area into serum separation tubes (Sarstedt AG & Co., Nümbrecht, Germany). Blood was allowed to coagulate at ambient temperature for 20 min. The tubes were centrifuged at 8,000×g for 3 min to separate the serum and stored at 4° C.
Serum was collected and diluted 10 to 8000-fold in PBS containing 5% nonfat dry milk. […] HBsAg levels were determined with a GS HBsAg EIA 3.0 kit (Bio-Rad Laboratories, Inc., Redmond, Wash.) as described by the manufacturer. […]

The test system of series [3] is Hepatitis B Virus (HBV). The series can be described thus: Serum HBV DNA levels in X Region Knockout model mice. The following applies: Example 14, single SC, 2 mg/kg AD04872 with 0.7 to 2 mg/kg AD05070, days 8-22.

“AD05070: HBV RNAi agent duplex: antisense AM06606-AS, sense AM06605-SS (antisense UACCAAUUUAUGCCUACAGCG; sense CGCUGUAGGCAUAAAUUGGUA; chemically modified, pattern not given here)”: the “knockdown of HBsAg compared to PBS control” value in the series with Hepatitis B Virus (HBV) [1] is “did not diminish the activity of the 2 mg/kg HBV RNAi agent AD04872”. Also, the “Average HBsAg levels normalized to pre-treatment and PBS control” value is 0.058 ± 0.035 with Hepatitis B Virus (HBV) [2] (Ex 8 Group 6A) and 0.117 ± 0.058 in the series with Hepatitis B Virus (HBV) [2] (Ex 8 Group 6B). In addition, the “HBsAg compared to PBS control” value in the series on Hepatitis B Virus (HBV) [2] (Example 15, pHBV mice, single SC injection, doses per Table 38, days 8-50) is given as “provided significant knockdown of HBsAg compared to PBS control across each of the time points measured”. Further, the “serum HBV DNA” value with Hepatitis B Virus (HBV) [3] is on record as “did not diminish the activity of the 2 mg/kg HBV RNAi agent AD04872”.
